In US9683018B2, “Disulfide cyclic polypeptides for the treatment of heart failure” (priority 2013, dated 2017):
Bridge positions count the residues as written; N and C are the ends. Square brackets hold non-standard residues; d marks the D form. Peptide text beside a SMILES is read from it. * marks the point of attachment. pGlu = O=C1CC[C@@H](C(=O)O)N1; NHPhenethyl = c1ccc(CCN*)cc1; Nle = CCCC[C@H](N)C(=O)O; Aib = CC(C)(N)C(=O)O

Legend:
in vitro = conditions: rat, plasma
Description: The calcium flux protocol described above was followed, with the following changes. The peptides were also incubated with 5% rat plasma (Bioreclamation # [sequence]-M, Na Heparin-treated). Readings were taken at time points t0 and t24 hrs, after incubation in a 37° C. tissue culture incubator. Peptide plasma half-life in minutes was estimated by calculating the following:
2) Calculate slope of value above and

hAPJ = target: T1, hAPJ (Homo sapiens, UniProt P35414); experiment: hAPJ Calcium Flux Assay; type: cell-based; conditions: Chem-5 APJ stable cells, FLIPR calcium flux; read-out: hAPJ Ca2+ Flux EC50
T1 sequence (P35414 1-380): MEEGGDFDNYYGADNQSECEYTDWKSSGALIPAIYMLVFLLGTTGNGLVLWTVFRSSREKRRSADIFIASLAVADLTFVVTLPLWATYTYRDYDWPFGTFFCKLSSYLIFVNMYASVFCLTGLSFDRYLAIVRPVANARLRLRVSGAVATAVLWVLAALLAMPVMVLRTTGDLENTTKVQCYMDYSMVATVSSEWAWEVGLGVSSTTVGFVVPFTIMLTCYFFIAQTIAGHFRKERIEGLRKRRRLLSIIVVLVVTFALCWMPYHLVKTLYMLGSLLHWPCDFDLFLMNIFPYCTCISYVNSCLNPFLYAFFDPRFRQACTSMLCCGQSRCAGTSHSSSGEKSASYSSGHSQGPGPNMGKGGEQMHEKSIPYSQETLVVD
Description: Chem-5 APJ stable cells (Millipore # HTS068C) were plated in 384-well format with 10,000 cells/well in 25 ul growth media, then grown 24 hours in a 37° C. tissue culture incubator. One hour before the assay, 25 ul/well FLIPR Calcium 4 dye (Molecular Devices R8142) with 2.5 mM probenecid was added, and cells were incubated one hour in a 37° C. tissue culture incubator. Peptides were solubilized in HBSS, HEPES & 0.1% BSA buffer, and serially-diluted 10-fold, from 50 uM to 5 pM, in triplicate. FLIPR Tetra was used to add peptide to the cells with dye (1:5, for final peptide concentrations ranging from 10 uM to 1 pM). FLIPR dye inside the cells emitted fluorescence after binding to calcium, while fluorescence from outside the cells was masked. Fluorescence was measured using 470-495 excitation and 515-575 emission wavelengths on the FLIPR Tetra. Readings were done for 3 minutes total, beginning 10 seconds before the peptide addition. Maximum-minimum values were calculated and plotted for each peptide concentration, and GraphPad prism software was used to calculate EC50 values at the curve inflection points, for calcium flux stimulation by peptides.

[1] = Plasma stability assay (LC-MS); type: in vitro ADME; conditions: male, Sprague-Dawley, heparinized rat plasma, 37° C., Table 3, read-out: Plasma stability t½
Description: Working solution: 1 mg/mL test article is prepared in Milli-Q water
Extraction solution: Methanol:Acetonitrile:Water (1:1:1) with 0.1% Formic Acid and 400 ng/mL Glyburide.
Plasma: Male Sprague-Dawley rat plasma (with sodium heparin), purchased from Bioreclamation LLC (Liverpool, N.Y.).
Test article was prepared in one of the following biological matrices: heparinized rat plasma, heparinized rat whole blood or lung homogenate. The plasma and whole blood sample was prepared at 5000 ng/mL by adding 5 uL of 1 mg/mL Working solution to 995 uL of rat plasma or whole blood. Lung homogenate samples were prepared by diluting lung homogenate to 1 mg/ml protein concentration with phosphate buffered saline (PBS), followed by addition of 5 uL Working solution to 995 uL diluted lung homogenate. The samples were incubated at 37° C. with gentle shaking (65˜75 rpm) in a water bath incubator. At times 0 min, 5 min, 15 min, 30 min, 60 min, 120 and 240 min, 25 uL aliquots of incubation samples were transferred to 96-well plate and immediately protein precipitated using 150 uL of Extraction solution. After completion of incubation experiment, the sample plate was centrifuged at 4000 rpm at 4° C. for 10 minutes. Afterwards, a pipetting device (Tecan Temo) was used to transfer the supernatants to another plate and add 50 uL of water to all samples. The plate was vortexed prior to LC-MS analysis.
LC-MS Analysis of stability samples
HPLC: Agilent 1290 HPLC with autosampler
Column: MAC-MOD ACE C18, 3 μm, 30 mm×2.1 mm i.d.
Mobile phase A: 0.1% Formic acid in acetonitrile
Mobile phase B: 0.1% Formic acid in water

[2] = Surrogate Activity based Plasma stability t½
[3] = Surrogate activity-based Plasma stability t½

| SMILES | half-life (in vitro; [2]) | half-life (in vitro; [3]) | EC50 (hAPJ) | half-life at 5000 ng/mL [1] |
| --- | --- | --- | --- | --- |
| CCCC[C@@H]1NC(=O)[C@@H]2CCCN2C(=O)CNC(=O)[C@H](CCCCN)NC(=O)[C@H](Cc2c[nH]cn2)NC(=O)[C@H](CO)NC(=O)[C@@H](NC(=O)[C@H](CCCNC(=N)N)NC(=O)[C@@H]2CCCN2C(=O)[C@H](CCCNC(=N)N)NC(=O)[C@@H]2CCC(=O)N2)CSSC[C@@H](C(=O)N[C@@H](Cc2ccccc2)C(=O)O)NC1=O [Example 1, pE-R-P-R-C*-S-H-K-G-P-Nle-C*-F-OH] ([pGlu]RPRCSHKGP[Nle]CF-OH; disulfide 5-12) | 2.12 h | 2.12 h | 0.74 nM | 2.82 h |
| CCCC[C@@H]1NC(=O)[C@@H]2CCCN2C(=O)CNC(=O)[C@H](CCCCN)NC(=O)[C@@H](NC(=O)[C@H](CO)NC(=O)[C@H](CC(C)C)NC(=O)[C@H](CCCNC(=N)N)NC(=O)[C@@H]2CCCN2C(=O)[C@H](CCCNC(=N)N)NC(=O)[C@@H]2CCC(=O)N2)CSSC[C@@H](C(=O)N[C@@H](Cc2ccccc2)C(=O)O)NC1=O [Example 3, pE-R-P-R-L-S-C*-K-G-P-Nle-C*-F-OH] ([pGlu]RPRLSCKGP[Nle]CF-OH; disulfide 7-12) | 0.433 h | 0.433 h | 128 nM | 1.35 h |
| CCCC[C@@H]1NC(=O)[C@@H]2CCCN2C(=O)[C@@H](NC(=O)[C@H](CCCCN)NC(=O)C(C)(C)NC(=O)[C@H](CO)NC(=O)[C@H](CC(C)C)NC(=O)[C@H](CCCNC(=N)N)NC(=O)[C@@H]2CCCN2C(=O)[C@H](CCCNC(=N)N)NC(=O)[C@@H]2CCC(=O)N2)CSSC[C@@H](C(=O)NCCc2ccccc2)NC1=O [Example 15, pE-R-P-R-L-S-Aib-K-C*-P-Nle-C*-NH(Phenethyl)] ([pGlu]RPRLS[Aib]KCP[Nle]C-NHPhenethyl; disulfide 9-12) | 0.683 h | 0.683 h | 4 nM | 0.7 h |
| CCCC[C@@H]1NC(=O)[C@@H]2CCCN2C(=O)[C@@H](NC(=O)[C@H](CCCCN)NC(=O)[C@H](Cc2c[nH]cn2)NC(=O)[C@@H](C)NC(=O)[C@H](CC(C)C)NC(=O)[C@H](CCCNC(=N)N)NC(=O)[C@@H]2CCCN2C(=O)[C@H](CCCNC(=N)N)NC(=O)[C@@H]2CCC(=O)N2)CSSC[C@@H](C(=O)N[C@H](Cc2ccccc2)C(=O)O)NC1=O [Example 17, pE-R-P-R-L-a-H-K-C*-P-Nle-C*-f-OH] ([pGlu]RPRL[dA]HKCP[Nle]C[dF]-OH; disulfide 9-12) | 15.1 h | 15.1 h | 1.9 nM | 8.42 h |

The remaining lines, values ahead:

| half-life (in vitro; [2]) | half-life (in vitro; [3]) | EC50 (hAPJ) | half-life at 5000 ng/mL [1] | SMILES |
| --- | --- | --- | --- | --- |
| 0.483 h | 0.483 h | 0.81 nM | 1.08 h | CCCC[C@@H]1NC(=O)[C@@H]2CCCN2C(=O)[C@@H](NC(=O)[C@H](CCCCN)NC(=O)[C@H](Cc2c[nH]cn2)NC(=O)[C@H](CO)NC(=O)[C@H](CC(C)C)NC(=O)[C@H](CCCNC(=N)N)NC(=O)[C@@H]2CCCN2C(=O)[C@H](CCCNC(=N)N)NC(=O)[C@@H]2CCC(=O)N2)CSSC[C@@H](C(=O)N[C@@H](Cc2ccccc2)C(=O)O)NC1=O [Example 14, pE-R-P-R-L-S-H-K-C*-P-Nle-C*-F-OH] ([pGlu]RPRLSHKCP[Nle]CF-OH; disulfide 9-12) |
|  | 8.88 h | 9.7 nM |  | CCCC[C@@H]1NC(=O)[C@@H]2CCCN2C(=O)[C@@H](NC(=O)[C@H](CCCCN)NC(=O)[C@H](Cc2c[nH]cn2)NC(=O)[C@@H](CO)NC(=O)[C@H](CC(C)C)NC(=O)[C@H](CCCNC(=N)N)NC(=O)[C@@H]2CCCN2C(=O)[C@H](CCCNC(=N)N)NC(=O)[C@@H]2CCC(=O)N2)CSSC[C@@H](C(=O)N[C@H](Cc2ccccc2)C(=O)O)NC1=O [Example 21, pE-R-P-R-L-s-H-K-C*-P-Nle-C*-f-OH] ([pGlu]RPRL[dS]HKCP[Nle]C[dF]-OH; disulfide 9-12) |
